Measured values as given in ChEMBL document CHEMBL1201862, “PubChem BioAssay data set” (2004).
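Compound exposure: 48 hours, 5 concentrations, 96-well plates. Here, GI50 denotes the concentration required for 50% inhibition of growth.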 The source made the active and inactive calls. Rule as the data show it: active = GI50 up to about 1.1 µM and inactive = higher.

Key:
Experiment in all cases: DTP human tumour cell line panel, 48 h
OVCAR-8 = test system: OVCAR-8
Malme-3M = test system: Malme-3M
OVCAR-5 = test system: OVCAR-5
HCT-15 = test system: HCT-15
MOLT-4 = test system: MOLT-4
HOP-92 = test system: HOP-92
SF-295 = test system: SF-295
DU-145 = test system: DU-145
HT-29 = test system: HT-29
ACHN = test system: ACHN
NCI-H23 = test system: NCI-H23
A549 = test system: A549
SW-620 = test system: SW-620
OVCAR-4 = test system: OVCAR-4
K562 = test system: K562
SK-MEL-28 = test system: SK-MEL-28
SK-MEL-5 = test system: SK-MEL-5
MDA-N = test system: MDA-N
M14 = test system: M14
RPMI-8226 = test system: RPMI-8226

| Compound | GI50 (OVCAR-8) | GI50 (Malme-3M) | GI50 (OVCAR-5) | GI50 (HCT-15) [µM] | GI50 (MOLT-4) | GI50 (HOP-92) | GI50 (SF-295) | GI50 (DU-145) | GI50 (HT-29) | GI50 (ACHN) | GI50 (NCI-H23) | GI50 (A549) | GI50 (SW-620) | GI50 (OVCAR-4) | GI50 (K562) | GI50 (SK-MEL-28) | GI50 (SK-MEL-5) | GI50 (MDA-N) | GI50 (M14) | GI50 (RPMI-8226) |
| --- | --- | --- | --- | --- | --- | --- | --- | --- | --- | --- | --- | --- | --- | --- | --- | --- | --- | --- | --- | --- |
| O=c1[nH]c2c(S)nc(O)nc2n1-c1ccccc1 | > 100 µM (inactive) | > 100 µM (inactive) | > 100 µM (inactive) | > 100 | > 100 µM (inactive) | > 100 µM (inactive) | > 100 µM (inactive) | > 100 µM (inactive) | > 100 µM (inactive) | > 100 µM (inactive) | > 100 µM (inactive) | > 100 µM (inactive) | > 100 µM (inactive) | > 100 µM (inactive) | > 100 µM (inactive) | > 100 µM (inactive) | > 100 µM (inactive) | > 100 µM (inactive) | > 100 µM (inactive) |  |
| O=C(O)CCSCc1ccccc1 | > 100 µM (inactive) | > 100 µM (inactive) | > 100 µM (inactive) | > 100 | > 100 µM (inactive) |  | > 100 µM (inactive) | > 100 µM (inactive) | > 100 µM (inactive) | > 100 µM (inactive) | > 100 µM (inactive) | > 100 µM (inactive) | > 100 µM (inactive) | > 100 µM (inactive) | > 100 µM (inactive) | > 100 µM (inactive) | > 100 µM (inactive) | > 100 µM (inactive) | > 100 µM (inactive) | > 100 µM (inactive) |
| CCOc1ccc(/C=C2/C(=O)N/C(=N\C(C)=O)N2C)cc1 | > 100 µM (inactive) |  | > 100 µM (inactive) | 64.7 | 39.6 µM (inactive) | > 100 µM (inactive) | > 100 µM (inactive) | > 100 µM (inactive) | > 100 µM (inactive) | > 100 µM (inactive) | > 100 µM (inactive) | > 100 µM (inactive) | > 100 µM (inactive) | > 100 µM (inactive) |  | > 100 µM (inactive) | > 100 µM (inactive) | > 100 µM (inactive) | > 100 µM (inactive) |  |
| C(=N/Nc1ccc(-c2nc3ccccc3[nH]2)cc1)/c1c(-c2ccccc2)[nH]c2ccccc12 | 0.698 µM (active) |  |  | 0.409 | 0.658 µM (active) | > 100 µM (inactive) | 0.294 µM (active) | 0.733 µM (active) | 0.222 µM (active) | 0.575 µM (active) | 0.973 µM (active) |  | 0.317 µM (active) | 2.78 µM (inactive) | 0.176 µM (active) | 0.638 µM (active) | 0.311 µM (active) | 0.0303 µM (active) | 0.215 µM (active) | 0.268 µM (active) |
| O=C(Cc1ccccc1)NCCCN(CCCCN(CCCNC(=O)Cc1ccccc1)C(=O)OCc1ccccc1)C(=O)OCc1ccccc1 | > 100 µM (inactive) |  | > 100 µM (inactive) | > 43.4 | 4.49 µM (inactive) | > 25.2 µM (inactive) | > 100 µM (inactive) | > 100 µM (inactive) | > 24.8 µM (inactive) | > 21.6 µM (inactive) | > 100 µM (inactive) | > 43 µM (inactive) | > 100 µM (inactive) |  | 7.24 µM (inactive) | > 100 µM (inactive) |  | > 100 µM (inactive) | > 100 µM (inactive) | 4.19 µM (inactive) |
| O=C(O)c1ccccc1/C=C1\Cc2cc3c(cc2C1=O)CCC3 | 26.3 µM (inactive) | 26.9 µM (inactive) | 57.1 µM (inactive) | 16.3 | 17.4 µM (inactive) |  | 24 µM (inactive) | 25.3 µM (inactive) | 19.2 µM (inactive) | 34.4 µM (inactive) | 18.1 µM (inactive) | 30.1 µM (inactive) | 21.8 µM (inactive) | 28.1 µM (inactive) | 17.1 µM (inactive) | 50.5 µM (inactive) | 18.1 µM (inactive) | 11.9 µM (inactive) | 23.5 µM (inactive) | 21.1 µM (inactive) |
| COc1ccc(C2c3cc4c(cc3OC(NNS(=O)(=O)c3ccc(C)cc3)C2C)OCO4)cc1 (configuration not stated) | > 100 µM (inactive) | > 100 µM (inactive) | > 100 µM (inactive) | 70.1 | 13.1 µM (inactive) | 21.1 µM (inactive) | 21.9 µM (inactive) | > 100 µM (inactive) | 93.8 µM (inactive) | 74 µM (inactive) | 99.8 µM (inactive) | 29.3 µM (inactive) | 73.5 µM (inactive) |  | 10.6 µM (inactive) | > 100 µM (inactive) | 69.5 µM (inactive) | 58.3 µM (inactive) | > 100 µM (inactive) | 12.5 µM (inactive) |
| COC(C/C(=C/CO[Si](C(C)C)(C(C)C)C(C)C)C(=O)N(COCC[Si](C)(C)C)c1ccccc1I)OC | 89.5 µM (inactive) |  | 32.4 µM (inactive) | 41.1 | 16.2 µM (inactive) | 42 µM (inactive) | 4.58 µM (inactive) | > 100 µM (inactive) | 60.3 µM (inactive) | 20.6 µM (inactive) | 17.3 µM (inactive) | 37.2 µM (inactive) | 33.5 µM (inactive) | 42.2 µM (inactive) | > 100 µM (inactive) | 14 µM (inactive) | 20.1 µM (inactive) | 37.4 µM (inactive) | 26.6 µM (inactive) | > 100 µM (inactive) |
| Cc1c2c(n(Cc3ccccn3)c1C)NN=C(C#N)S2(=O)=O | > 100 µM (inactive) |  | > 100 µM (inactive) | > 100 | > 100 µM (inactive) | > 100 µM (inactive) | > 100 µM (inactive) | > 100 µM (inactive) | > 100 µM (inactive) | > 100 µM (inactive) | > 100 µM (inactive) | > 100 µM (inactive) | > 100 µM (inactive) | > 100 µM (inactive) |  | > 100 µM (inactive) | > 100 µM (inactive) | > 100 µM (inactive) | > 100 µM (inactive) |  |
| N#CCCC1(CCC#N)CCCCCCCCC(CCC#N)(CCC#N)C(=O)C1=O | > 100 µM (inactive) | > 100 µM (inactive) | > 100 µM (inactive) | > 100 |  | > 100 µM (inactive) | > 100 µM (inactive) | > 100 µM (inactive) | > 100 µM (inactive) | > 100 µM (inactive) | > 100 µM (inactive) | > 100 µM (inactive) | > 100 µM (inactive) | > 100 µM (inactive) | 83.9 µM (inactive) | > 100 µM (inactive) |  | > 100 µM (inactive) | > 100 µM (inactive) |  |
| Cc1ccc(C)n2c1nc1cc3ccccc3cc12 | 44.4 µM (inactive) | 50.1 µM (inactive) | 74.3 µM (inactive) | 4.92 | 23.3 µM (inactive) | 8.75 µM (inactive) | 42.3 µM (inactive) | 51.9 µM (inactive) |  | 29.6 µM (inactive) | 25.2 µM (inactive) | 28.6 µM (inactive) | 33.1 µM (inactive) |  | 47.2 µM (inactive) | 45 µM (inactive) | 17.1 µM (inactive) | 38.6 µM (inactive) | 42.6 µM (inactive) | 42.5 µM (inactive) |
| COc1ccc2c(c1)CC[C@@H]1C2CC[C@]2(C)C(=O)N(CCN(C)C)C(=O)CC12 (some centres not stated) | > 100 µM (inactive) | > 100 µM (inactive) | > 100 µM (inactive) |  | > 100 µM (inactive) | > 100 µM (inactive) | > 100 µM (inactive) | > 100 µM (inactive) | > 100 µM (inactive) | > 100 µM (inactive) | > 100 µM (inactive) | > 100 µM (inactive) | > 100 µM (inactive) | > 100 µM (inactive) | > 100 µM (inactive) | > 100 µM (inactive) | 83.9 µM (inactive) | > 100 µM (inactive) | > 100 µM (inactive) |  |
| OCCOCCO[P+]1(OCCOCCO)n2c3ccc2C(c2ccccc2)=C2C=CC(=N2)C(c2ccccc2)=c2ccc(n21)=C(c1ccccc1)C1=NC(=C3c2ccccc2)C=C1 | 0.174 µM (active) | 0.119 µM (active) | 0.525 µM (active) | 1.51 | 0.0267 µM (active) |  | 0.281 µM (active) | 0.112 µM (active) | 0.0845 µM (active) | 0.35 µM (active) | 0.105 µM (active) | 0.113 µM (active) | 0.184 µM (active) | 0.209 µM (active) | < 0.0188 µM (active) | 0.0631 µM (active) | 0.0506 µM (active) | 0.0314 µM (active) | 0.272 µM (active) | 0.0142 µM (active) |
| COc1ccc(/N=C2\C(=O)C3=C(OC(C)(C)CC3)c3ccccc32)cc1 | 0.43 µM (active) | 0.791 µM (active) | 2.82 µM (inactive) | 1.05 | 2.11 µM (inactive) | 2.66 µM (inactive) | 0.863 µM (active) | 0.871 µM (active) | 0.741 µM (active) | 0.845 µM (active) | 1.31 µM (inactive) | 0.946 µM (active) | 0.873 µM (active) | 0.773 µM (active) | 0.612 µM (active) | 1.14 µM (inactive) | 0.838 µM (active) | 0.492 µM (active) | 0.769 µM (active) |  |
| CCN(CC)CCNc1ccc2ncn3c4c(OC)ccc(OC)c4c(=O)c1c23 | 10.8 µM (inactive) | 23.8 µM (inactive) |  | 16 | 1.45 µM (inactive) | 11.2 µM (inactive) | 13.3 µM (inactive) | 12.9 µM (inactive) | > 10 µM (inactive) | 4.1 µM (inactive) | 22.6 µM (inactive) | 22.5 µM (inactive) | 0.853 µM (active) | 6.11 µM (inactive) | 10.4 µM (inactive) | 21.2 µM (inactive) | 17.2 µM (inactive) | 10.8 µM (inactive) | 18.7 µM (inactive) |  |
